Our source for the IC50 and bioavailability values is patent US20260200945A1, “4-(3,8-DIAZABICYCLO[3,2,1]OCTAN-3-YL)-PYRIDO[4,3-D]PYRIMIDINE DERIVATIVES AS INHIBITORS OF THE KRAS (G12D) MUTANT ONCOPROTEIN FOR THE TREATMENT OF CANCER” (Ranok Therapeutics (Hangzhou) Co. Ltd., priority 2022, published 2026).

What is called IC50 is the concentration needed to halve the response being measured. As usually defined, the bioavailability is dose-corrected exposure relative to a reference, in per cent.

The test system of one series is AGS cells. In words: Cancer Cell Line Proliferation (CellTiter-Glo) AGS. Type of series: cell-based. To be noted: Homo sapiens, 72 hr, read-out: CTG(IC50) ABS-72H(nM) AGS. Here is the method: (§1) The following cancer cell lines were employed: AGS gastric carcinoma [heterozygous […]](ATCC, CRL-1739); A-427 lung carcinoma [heterozygous G12D](ATCC, HTB-53); ASPC1 pancreatic adenocarcinoina [homozygous […]](ATCC, CRL-1682) and SW1990 pancreatic adenocarcinoma [homozygous G12D](ATCC CRL-2172). Cell lines were cultured essentially according to ATCC recommendations. AGS, SW1990, and GP2D cells were plated in 96-well tissue culture plates at 4,000 cells/well and incubated at 37° C./5% CO2 for 72 hr in 100 μl of media. 3-fold serial dilutions of each test compound were prepared ranging from 20 µM to 1.02 nM. Each cell line was then treated with test compounds at various concentrations with a final concentration of 0.5% DMSO/well, and then incubated at 37° C./5% CO2 for 72 hr. 100 μl of CellTiter-Glo® Reagent (Promega Corporation, Madison, WI) was added to each well and processed according manufacturer's protocol. Results were analyzed and IC50 values were calculated in GraphPad 7 software.

A further series deals with GP2D cells. In words: Cancer Cell Line Proliferation (CellTiter-Glo) GP2D. Type of series: cell-based. Conditions: 72 hr, read-out: CTG(IC50) ABS-72H(nM) GP2D. Here is the method: AGS, SW1990, and GP2D cells were plated in 96-well tissue culture plates at 4,000 cells/well and incubated at 37° C./5% CO2 for 72 hr in 100 μl of media. 3-fold serial dilutions of each test compound were prepared ranging from 20 µM to 1.02 nM. Each cell line was then treated with test compounds at various concentrations with a final concentration of 0.5% DMSO/well, and then incubated at 37° C./5% CO2 for 72 hr. 100 μl of CellTiter-Glo® Reagent (Promega Corporation, Madison, WI) was added to each well and processed according manufacturer's protocol. Results were analyzed and IC50 values were calculated in GraphPad 7 software.
(ATP-based viability assays read luminescence as a measure of living cells.)

A further series addresses T1, KRAS(G12D)/SOS1 (Homo sapiens, UniProt P01116, G12D).
T1 construct: purchased Cisbio 63ADK000CB17PEH
As to the kind of experiment: KRAS(G12D)/SOS1 Homogeneous Time-Resolved Fluorescence (HTRF) Assay. It counts as binding. To be noted: absence of GTP, 4° C. for 3 hr. On the procedure: Binding of test compounds to KRAS(G12D) target protein, which in turn blocks KRAS(G12D) interaction with the SOS1 protein, was measured in the absences of GTP by homogeneous time-resolved fluorescence using the KRAS-G12D/SOS1 Binding Assay Kit (Cisbio, 63ADK000CB17PEH), following the manufacturer's instructions, except as noted. 3-fold serial dilutions of each test compound were prepared ranging from 20 µM to 1.02 nM. The test compound was mixed and incubated with reaction components, incubated in a sealed plate at 4° C. for 3 hr and fluorescence was measured using a PerkinElmer Envision plate reader. The KRAS(G12D)-SOS1 IC50 values (the concentration of 50% of the maximal inhibition) were calculated using GraphPad Prism 7 software.
In general terms: In TR-FRET formats the signal depends on donor and acceptor labels being close together.

A further series has as its system SW1990 cells. As to the kind of experiment: Cancer Cell Line Proliferation (CellTiter-Glo) SW1990. It counts as cell-based. To be noted: Homo sapiens, 72 hr, read-out: CTG(IC50) ABS-72H(nM) SW1990. On the procedure:
as §1

The nature of series [1]: Oral Bioavailability in CD-1 mice. It counts as in vivo. To be noted: mouse, blood; male CD-1 mice, single oral dose, LC-MS/MS; read-out: % F (mean oral bioavailability). Here is the method: CD-1 mice were randomly assigned to 6 groups with 3 male mice in each compound group. Compounds were orally administered (P0) in a single dose to each mouse in its group. Blood samples were taken within 72 hours. Bioavailability (F %) was determined and by liquid chromatography-mass spectrometry (LC-MS/MS).

The structures appear in SMILES notation.

T1 sequence (P01116 1-188 isoform P01116-2 G12D): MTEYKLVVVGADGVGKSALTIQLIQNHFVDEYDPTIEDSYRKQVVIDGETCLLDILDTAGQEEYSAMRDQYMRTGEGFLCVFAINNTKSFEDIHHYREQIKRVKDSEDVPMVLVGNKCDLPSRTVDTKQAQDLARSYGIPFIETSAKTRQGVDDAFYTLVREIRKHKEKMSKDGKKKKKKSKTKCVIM

With `C#Cc1c(F)ccc2cc(O)cc(-c3nc(OC)c4c(N5CC6CCC(C5)N6)nc(OCC(=CCC)CN5CC6CC6C5)nc4c3F)c12` (centres unmarked) [Example 7], the IC50 in the series on AGS cells and in the series with GP2D cells was 100 to 1000 nM in each case.

With `C#Cc1c(F)ccc2cc(O)cc(-c3nc(OC)c4c(N5CC6CCC(C5)N6)nc(OC/C(=C\C(F)(F)F)CN5CC6CC6C5)nc4c3F)c12` (centres unmarked) [Example 13], the IC50 with AGS cells and with GP2D cells was 100 to 1000 nM in each case.

As for `[2H]C([2H])([2H])Oc1nc(-c2cc(O)cc3ccc(F)c(C#C)c23)c(F)c2nc(OCC(=C)CN3CC4C(F)C4C3)nc(N3CC4CCC(C3)N4C(=O)C(F)(F)F)c12` (centres unmarked) [Example 8], the IC50 with AGS cells and in the series with GP2D cells was 100 to 1000 nM each time.

As to `C#Cc1c(F)ccc2cc(O)cc(-c3nc(OC)c4c(N5CC6CCC(C5)N6)nc(OC/C(=C\CC)CN5CC6CC6C5)nc4c3F)c12` (centres unmarked) [Example 12], the IC50 in the series on AGS cells was 100 to 1000 nM; in the series with GP2D cells, less than 100 nM.

For `C#Cc1c(F)ccc2c(F)c(O)cc(-c3nc(OC)c4c(N5CC6CCC(C5)N6)nc(OCC(CN5CC6CC6C5)=C(C)C)nc4c3F)c12` (centres unmarked) [Example 19], the IC50 was 100 to 1000 nM with AGS cells and less than 100 nM in the series with GP2D cells.

With `C#Cc1c(F)ccc2cc(N)cc(-c3nc(OC)c4c(N5CC6CCC(C5)N6)nc(OCC(=C)CN5CC6CC6C5)nc4c3F)c12` (centres unmarked) [Example 10], the IC50 in the series with AGS cells is 100 to 1000 nM; with GP2D cells, less than 100 nM.

As for `[2H]C([2H])([2H])Oc1nc(-c2cc(O)cc3ccc(F)c(C#C)c23)c(F)c2nc(OCC(=C)CN3CC4CC4C3)nc(N3CC4CCC(C3)N4)c12` (centres unmarked) [Example 4], the IC50 against KRAS(G12D)/SOS1, in the series with AGS cells, in the series with GP2D cells and with SW1990 cells was less than 100 nM throughout. In addition, the bioavailability in series [1] was 1.7%.

With `C#Cc1c(F)ccc2cc(O)cc(-c3nc(OC)c4c(N5CC6CCC(C5)N6)nc(OC/C(=C\C#N)CN5CC6CC6C5)nc4c3F)c12` (centres unmarked) [Example 18], the IC50 with AGS cells was in the range of 100 to 1000 nM.

With `C#Cc1c(F)ccc2cc(O)cc(-c3nc(OC)c4c(N5CC6CCC(C5)N6)nc(OCC(CN5CC6CC6C5)=C(F)F)nc4c3F)c12` (centres unmarked) [Example 6], the IC50 in the series with AGS cells, in the series with GP2D cells and in the series with SW1990 cells was less than 100 nM each time.

For the molecule `C#Cc1c(F)ccc2cc(O)cc(-c3nc(OC)c4c(N5CC6CCC(C5)N6)nc(OC/C(CN5CC6CC6C5)=N\OC)nc4c3F)c12` (centres unmarked) [Example 16], the IC50 with AGS cells and in the series with GP2D cells was less than 100 nM in each case.

Turning to `C#Cc1c(F)ccc2cc(O)cc(-c3nc(OC)c4c(N5CC6CCC(C5)N6)nc(OCC(CN5CC6CC6C5)=C(C)C)nc4c3F)c12` (centres unmarked) [Example 2, 4-{2-[(2-{3-azabicyclo[3.1.0]hexan-3-ylmethyl}-3-methylbut-2-en-1-yl)oxy]-4-{3,8-diazabicyclo[3.2.1]octan-3-yl}-8-fluoro-5-methoxypyrido[4,3-d]pyrimidin-7-yl}-5-ethynyl-6-fluoronaphthalen-2-ol], the IC50 at KRAS(G12D)/SOS1, in the series with AGS cells, in the series with GP2D cells and in the series on SW1990 cells was less than 100 nM throughout. Moreover, the bioavailability in series [1] stood at 12.1%.

For `C#Cc1c(F)ccc2cc(O)cc(-c3nc(OC)c4c(N5CC6CCC(C5)N6CC#N)nc(OCC(CN5CC6CC6C5)=C(C)C)nc4c3F)c12` (centres unmarked) [Example 14], the IC50 with AGS cells and in the series on GP2D cells was less than 100 nM each time.

For `C#Cc1c(F)ccc2cc(O)cc(-c3ncc4c(N5CC6CCC(C5)N6)nc(OCC(=C)CN5CCC(F)CC5)nc4c3F)c12` [Example 3], the IC50 at KRAS(G12D)/SOS1, in the series on AGS cells, in the series on GP2D cells and in the series on SW1990 cells was less than 100 nM in each case.

Regarding `C#Cc1c(F)ccc2cc(O)cc(-c3nc(OC)c4c(N5CC6CCC(C5)N6)nc(OCC(=C)CN5CC6C(F)C6C5)nc4c3F)c12` (centres unmarked) [Example 5], the half-maximal inhibitory concentration (IC50) against KRAS(G12D)/SOS1, with AGS cells, in the series on GP2D cells and with SW1990 cells was less than 100 nM each time. Besides, in series [1], the bioavailability is 7.7%.

Consider `C#Cc1c(F)ccc2cc(O)cc(-c3nc(OC)c4c(N5CC6CCC(C5)N6)nc(OC/C(=C\C)CN5CC6CC6C5)nc4c3F)c12` (centres unmarked) [Example 9], for which the IC50 in the series on AGS cells and in the series on GP2D cells was less than 100 nM each time.

On to `C#Cc1c(F)ccc2cc(O)cc(-c3nc(OC)c4c(N5CC6CCC(C5)N6)nc(OCC(=C)CN5CC6CC6C5)nc4c3F)c12` (centres unmarked) [Example 1, 4-{2-[(2-{3-azabicyclo[3.1.0]hexan-3-ylmethyl}prop-2-en-1-yl)oxy]-4-{3,8-diazabicyclo[3.2.1]octan-3-yl}-8-fluoro-5-methoxypyrido[4,3-d]pyrimidin-7-yl}-5-ethynyl-6-fluoronaphthalen-2-ol], for which the IC50 against KRAS(G12D)/SOS1, with AGS cells, with GP2D cells and in the series on SW1990 cells was less than 100 nM in each case. Moreover, the bioavailability in series [1] turned out to be 10.6%.

As for `C#Cc1c(F)ccc2cc(O)cc(-c3nc(OC)c4c(N5CC6CCC(C5)N6)nc(OC/C(CN5CC6CC6C5)=N/OC)nc4c3F)c12` (centres unmarked) [Example 15], the IC50 in the series with AGS cells and with GP2D cells was less than 100 nM throughout.

With `C#Cc1c(F)ccc2cc(O)cc(-c3nc(OC)c4c(N5CC6CCC(C5)N6)nc(OC/C(=C/CC)CN5CC6CC6C5)nc4c3F)c12` (centres unmarked) [Example 11], the IC50 in the series on AGS cells and in the series with GP2D cells was less than 100 nM in each case.
